Source: patent publication US5298494A, “Monosaccharides having anti-proliferation and anti-inflammatory activity, compositions and uses thereof” (Greenwich Pharmaceuticals Incorporated, priority 1993, dated 1994)
“And” between values parts separate entries of the source, which are not always exact repeats. Equal values may be shown once. Read-outs that look alike come from different tables or passages of the source.

Test system: T lymphocytes (normal mouse spleen cells) stimulated with ConA
Assay: Mouse Spleen Cell ConA Blastogenesis Assay
Type: cell-based, mouse (C57Bl/6)
Conditions: for inhibition at 0.01 µg/mL / inhibition at 0.001 µg/mL / inhibition at 0.1 µg/mL / inhibition at 1 µg/mL / inhibition at 2.5 µg/mL / inhibition at 10 µg/mL / inhibition at 25 µg/mL / inhibition at 100 µg/mL / inhibition at 300 µg/mL / inhibition at 750 µg/mL: Mus musculus, T-lymphocyte; for inhibition at 0.01 µg/mL: 0.01 ug/ml, read-out: % Change from Control (Table II); for inhibition at 0.001 µg/mL / inhibition at 0.1 µg/mL / inhibition at 1 µg/mL / inhibition at 2.5 µg/mL / inhibition at 10 µg/mL / inhibition at 25 µg/mL / inhibition at 100 µg/mL / inhibition at 300 µg/mL / inhibition at 750 µg/mL: read-out: % change from control, ConA blastogenic response; for inhibition at 300 µg/mL: compound 300 ug/ml; for inhibition at 750 µg/mL: compound 750 ug/ml
Source text: It is well known that several plant lectins, when cultured in vitro with lymphocytes, stimulate cellular activation and proliferation. Concanavolin, (ConA) selectively stimulates the blastogenic response of T lymphocytes.
Six to 8 week old male C57Bl/6 mice were purchased from Harlan Sprague Dawley (Indianapolis, Ind.).
Spleens were removed and were homogenized to obtain a single cell suspension. Erythrocytes were lysed by hypotonic shock. Upon determination of the viability and concentration of the lymphoid cells, they were adjusted to 4×10^6 cells/ml in culture medium (RPMI-1640) supplemented with 10% fetal bovine serum; 100 ug/ml streptomycin; 100 U/ml penicillin, 0.2M hepes buffer; 5×10^-5 M 2-mercaptoethanol and 2 mM glutamine). seeded into microtiter plate wells at 2×10^5 cells/0.050 ml/well. To these cultures were added various doses of experimental compounds and ConA at a final concentration of 4 or 1 ug/ml. Control cultures consisted of cells, ConA and culture medium containing the vehicle, DMSO only. […] For the testing of the methyl 1,3-O-isopropylidene-6-O-n-heptyl-α-D-fructofuranoside compound indomethacin and NDGA were used as controls. All cultures were run in triplicate.
Solutions of compounds of the invention in DMSO were prepared and dilutions were made in culture medium. Assay concentrations were either: 1, 2.5, 10, 25, 100, 300 and 750 ug/ml or 0.001, 0.01, 0.1, 1, 2.5, 10, 25 and 100 ug/ml.
Cultures were incubated for 3 days at 37° C. in a humidified atmosphere of 5% of CO2 in air. For the last 18 hours of culture, 1 uCi of ^3 H-thymidine was also incubated in each well. The cells were precipitated by a multi-channel harvester. The amount of ^3 H-thymidine incorporated by the cultures, as a measure of cell proliferation, was measured in a liquid scintillation counter. The amount of radioactive incorporation is proportional to the amount of cellular proliferation in individual wells. The students T test was used to determine the significance of the difference between experimental and control values.

[1] = ConA 1 ug/ml, compound 0.001 ug/ml
[2] = ConA 1 ug/ml, compound 0.1 ug/ml
[3] = ConA 1 ug/ml, compound 2.5 ug/ml
[4] = ConA 1 ug/ml, compound 10 ug/ml
[5] = ConA 1 ug/ml, compound 25 ug/ml
[6] = ConA 1 ug/ml, compound 100 ug/ml
[7] = ConA 4 ug/ml, compound 0.001 ug/ml
[8] = ConA 4 ug/ml, compound 0.1 ug/ml
[9] = ConA 4 ug/ml, compound 2.5 ug/ml
[10] = ConA 4 ug/ml, compound 10 ug/ml
[11] = ConA 4 ug/ml, compound 25 ug/ml
[12] = ConA 4 ug/ml, compound 100 ug/ml

Cc1cn([C@H]2C[C@H](N=[N+]=[N-])[C@@H](CO)O2)c(=O)[nH]c1=O [AZT, reference compound]
Blastogenic response of normal spleen cells to Con-A [1]: 47.1 ± 4.5 × 10^-3 cpm
Blastogenic response of normal spleen cells to Con-A (ConA 1 ug/ml, compound 0.01 ug/ml): 36.7 ± 3.1 × 10^-3 cpm
Blastogenic response of normal spleen cells to Con-A [2]: 9.1 ± 5.8 × 10^-3 cpm
% change from control, ConA blastogenic response (ConA 1 ug/ml, compound 1 ug/ml): -99% and -96%
Blastogenic response of normal spleen cells to Con-A (ConA 1 ug/ml, compound 1 ug/ml): 1.7 ± 0.1 × 10^-3 cpm
% change from control, ConA blastogenic response [3]: -98%
Blastogenic response of normal spleen cells to Con-A [3]: 0.7 ± 0.3 × 10^-3 cpm
% change from control, ConA blastogenic response [4]: -100% and -99%
Blastogenic response of normal spleen cells to Con-A [4]: 0.5 ± 0.1 × 10^-3 cpm
% change from control, ConA blastogenic response [5]: -100% and -99%
Blastogenic response of normal spleen cells to Con-A [5]: 0.5 ± 0.2 × 10^-3 cpm
% change from control, ConA blastogenic response [6]: -100% and -99%
Blastogenic response of normal spleen cells to Con-A [6]: 0.3 ± 0.0 × 10^-3 cpm
Blastogenic response of normal spleen cells to Con-A [7]: 163.7 ± 8.0 × 10^-3 cpm
Blastogenic response of normal spleen cells to Con-A (ConA 4 ug/ml, compound 0.01 ug/ml): 158.1 × 10^-3 cpm
Blastogenic response of normal spleen cells to Con-A [8]: 24.5 ± 3.0 × 10^-3 cpm
% change from control, ConA blastogenic response (ConA 4 ug/ml, compound 1 ug/ml): -99% and -97%
Blastogenic response of normal spleen cells to Con-A (ConA 4 ug/ml, compound 1 ug/ml): 4.0 ± 1.5 × 10^-3 cpm
% change from control, ConA blastogenic response [9]: -100% and -99%
Blastogenic response of normal spleen cells to Con-A [9]: 1.9 ± 0.4 × 10^-3 cpm
% change from control, ConA blastogenic response [10]: -100% and -99%
Blastogenic response of normal spleen cells to Con-A [10]: 1.4 ± 0.4 × 10^-3 cpm
Blastogenic response of normal spleen cells to Con-A [11]: 1.3 ± 0.5 × 10^-3 cpm
% change from control, ConA blastogenic response [12]: -99% and -100%
Blastogenic response of normal spleen cells to Con-A [12]: 0.6 ± 0.1 × 10^-3 cpm
inhibition at 0.01 µg/mL (ConA 1 ug/ml): 7%
inhibition at 0.001 µg/mL [1]: 18%
inhibition at 0.1 µg/mL [2]: 93%
inhibition at 1 µg/mL (ConA 1 ug/ml, compound 1 ug/ml): 96%
inhibition at 2.5 µg/mL [3]: 98%
inhibition at 10 µg/mL [4]: 99%
inhibition at 25 µg/mL [5]: 99%
inhibition at 100 µg/mL [6]: 99%
inhibition at 0.01 µg/mL (ConA 4 ug/ml): 13%
inhibition at 0.001 µg/mL [7]: -5%
inhibition at 0.1 µg/mL [8]: 99%
inhibition at 1 µg/mL (ConA 4 ug/ml, compound 1 ug/ml): 97%
inhibition at 2.5 µg/mL [9]: 99%
inhibition at 10 µg/mL [10]: 99%
inhibition at 25 µg/mL [11]: 99%
inhibition at 100 µg/mL [12]: 100%

CCCCCCCSC[C@H]1OC(C)(C)O[C@@H]2[C@H]3OC(C)(C)O[C@H]3O[C@@H]21 [IIIn, 1,2:3,5-Di-O-Isopropylidene-6-deoxy-6-thio-n-heptyl-β-D-glucofuranose]
inhibition at 1 µg/mL (ConA 1 ug/ml, compound 1 ug/ml): 4%
inhibition at 10 µg/mL [4]: 29%
inhibition at 25 µg/mL [5]: 27%
inhibition at 100 µg/mL [6]: 84%
inhibition at 300 µg/mL (ConA 1 ug/ml): 99%
inhibition at 750 µg/mL (ConA 1 ug/ml): 99%
inhibition at 1 µg/mL (ConA 4 ug/ml, compound 1 ug/ml): -1%
inhibition at 10 µg/mL [10]: 12%
inhibition at 25 µg/mL [11]: 16%
inhibition at 100 µg/mL [12]: 76%
inhibition at 300 µg/mL (ConA 4 ug/ml): 99%
inhibition at 750 µg/mL (ConA 4 ug/ml): 98%
strong antiproliferative effect on ConA blastogenic response (concentration not given): greater than -50 % of control
